This test has as its target Human RSK2 (Homo sapiens (Human), UniProt P51812). Put plainly: Human RSK2 assay (Kinase Glo Plus, residual ATP).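 Note: recombinant human RSK2 phosphorylating a substrate peptide, 90 min at 28 °C, leftover ATP read by luminescence, RLU scaled between no-kinase background and uninhibited kinase controls, 4-parameter fit.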 It is filed as biochemical. For orientation: Kinase-Glo measures the ATP left after a reaction by luminescence.
Human RSK2, sequence (P51812 whole entry): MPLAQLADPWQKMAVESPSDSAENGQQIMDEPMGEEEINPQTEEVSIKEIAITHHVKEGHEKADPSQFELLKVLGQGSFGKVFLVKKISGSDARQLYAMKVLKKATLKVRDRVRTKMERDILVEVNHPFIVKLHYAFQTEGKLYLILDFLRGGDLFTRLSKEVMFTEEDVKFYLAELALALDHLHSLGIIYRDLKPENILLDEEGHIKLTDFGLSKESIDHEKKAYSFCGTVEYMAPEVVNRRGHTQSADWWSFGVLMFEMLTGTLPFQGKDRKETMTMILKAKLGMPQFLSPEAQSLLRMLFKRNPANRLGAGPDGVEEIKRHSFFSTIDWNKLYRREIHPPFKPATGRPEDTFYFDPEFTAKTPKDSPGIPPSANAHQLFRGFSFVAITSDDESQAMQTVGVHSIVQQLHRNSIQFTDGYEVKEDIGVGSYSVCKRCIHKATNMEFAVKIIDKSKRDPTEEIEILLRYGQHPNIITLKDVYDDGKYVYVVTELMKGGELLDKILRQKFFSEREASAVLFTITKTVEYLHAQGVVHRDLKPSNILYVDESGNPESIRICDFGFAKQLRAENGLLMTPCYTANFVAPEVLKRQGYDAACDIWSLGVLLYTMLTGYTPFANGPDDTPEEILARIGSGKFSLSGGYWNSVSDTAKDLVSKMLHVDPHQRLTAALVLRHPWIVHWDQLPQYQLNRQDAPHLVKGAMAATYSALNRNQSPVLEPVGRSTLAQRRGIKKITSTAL
Turning to `O=C(Nc1cnn(-c2ccccc2)c1)c1ccc2cc3n(c2c1)CCCNC3=O` [Example 192, 1-oxo-N-(1-phenyl-1H-pyrazol-4-yl)-2,3,4,5-tetrahydro-1H-[1,4]diazepino[1,2-a]indole-8-carboxamide], the IC50 (commonly the midpoint of a concentration-inhibition curve) is 18 nM.

For `CC(C)c1ccc(NC(=O)c2ccc3cc4n(c3c2)CCCNC4=O)cc1` [Example 146, 1-oxo-N-[4-(propan-2-yl)phenyl]-2,3,4,5-tetrahydro-1H-[1,4]diazepino[1,2-a]indole-8-carboxamide], the IC50 is 89 nM.

Regarding `CN(C)CCNC(=O)c1ccccc1NC(=O)c1ccc2cc3n(c2c1)CCCNC3=O` [Example 230, N-(2-{[2-(dimethylamino)ethyl]carbamoyl}phenyl)-1-oxo-2,3,4,5-tetrahydro-1H-[1,4]diazepino[1,2-a]indole-8-carboxamide], the IC50 was found to be 125 nM.

Take `Cc1cc(NC(=O)c2ccc3cc4n(c3c2)[C@@H](C)[C@H](C)CNC4=O)no1` (relative stereo) [Example 169, Trans-4,5-dimethyl-N-(5-methyl-1,2-oxazol-3-yl)-1-oxo-2,3,4,5-tetrahydro-1H-[1,4]diazepino[1,2-a]indole-8-carboxamide]: the half-maximal inhibitory concentration (IC50) stood at 570 nM.

As to `C[C@@H]1CNC(=O)c2cc3ccc(C(=O)Nc4nc5ccccc5n4CCCN(C)C)cc3n21` [Example 129, (4R)-N-{1-[3-(dimethylamino)propyl]-1H-benzimidazol-2-yl}-4-methyl-1-oxo-1,2,3,4-tetrahydropyrazino[1,2-a]indole-7-carboxamide], the IC50 worked out at 0.7 nM.

As to `CC1CNC(=O)c2cc3ccc(C(=O)Nc4cnn(C)c4)cc3n21` (stereo not shown) [Example 22, 4-methyl-N-(1-methyl-1H-pyrazol-4-yl)-1-oxo-1,2,3,4-tetrahydropyrazino[1,2-a]indole-7-carboxamide], the IC50 came to 5.1 nM.

For the compound `O=C(Nc1ccccc1)c1ccc2cc3n(c2c1)CCCNC3=O` [Example 178, 1-oxo-N-phenyl-2,3,4,5-tetrahydro-1H-[1,4]diazepino[1,2-a]indole-8-carboxamide], the IC50 turned out to be 290 nM.

`O=C(Nc1cc(C2CC2)on1)c1ccc2cc3n(c2c1)CCCNC3=O` [Example 183, N-(5-cyclopropyl-1,2-oxazol-3-yl)-1-oxo-2,3,4,5-tetrahydro-1H-[1,4]diazepino[1,2-a]indole-8-carboxamide]: the IC50 stood at 26 nM.

Take `C[C@H]1NC(=O)c2cc3ccc(C(=O)Nc4nc5ccccc5n4CCCN(C)C)cc3n2[C@H]1C` [Example 141, (3R,4S)-N-{1-[3-(dimethylamino)propyl]-1H-benzimidazol-2-yl}-3,4-dimethyl-1-oxo-1,2,3,4-tetrahydropyrazino[1,2-a]indole-7-carboxamide]: the IC50 was determined as 13.7 nM.

For the compound `O=C(Nc1nc2cc(Cl)ccc2[nH]1)c1ccc2cc3n(c2c1)CCCNC3=O` [Example 47, N-(5-chloro-1H-benzimidazol-2-yl)-1-oxo-2,3,4,5-tetrahydro-1H-[1,4]diazepino[1,2-a]indole-8-carboxamide], the IC50 came out at 8 nM.

`C[C@@H]1NC(=O)c2cc3ccc(C(=O)Nc4nc5ccccc5n4CCCN(C)C)cc3n2[C@H]1C` (relative stereo) [Example 91, N-{1-[3-(dimethylamino)propyl]-1H-benzimidazol-2-yl}-trans-3,4-dimethyl-1-oxo-1,2,3,4-tetrahydropyrazino[1,2-a]indole-7-carboxamide]: the IC50 was found to be 8.5 nM.

On to `CNC(=O)c1ccccc1NC(=O)c1ccc2cc3n(c2c1)CCCNC3=O` [Example 229, N-[2-(methylcarbamoyl)phenyl]-1-oxo-2,3,4,5-tetrahydro-1H-[1,4]diazepino[1,2-a]indole-8-carboxamide], for which the IC50 worked out at 154 nM.

Regarding `CN(C)CCCn1c(NC(=O)c2ccc3cc4n(c3c2)CC2(CCNCC2)CNC4=O)nc2ccccc21` [Example 236, N-{1-[3-(dimethylamino)propyl]-1H-benzimidazol-2-yl}-1-oxo-2,3-dihydro-1H-spiro[1,4-diazepino[1,2-a]indole-4,4′-piperidine]-8-carboxamide], the IC50 came to 540 nM.

With `O=C(Nc1ccn(Cc2ccc(F)cc2)n1)c1ccc2cc3n(c2c1)CCCNC3=O` [Example 12, N-[1-(4-fluorobenzyl)-1H-pyrazol-3-yl]-1-oxo-2,3,4,5-tetrahydro-1H-[1,4]diazepino[1,2-a]indole-8-carboxamide], the IC50 was determined as 220 nM.

With `Cc1cc(NC(=O)c2ccc3cc4n(c3c2)[C@H](C)CCNC4=O)no1` [Example 225, (5R)-5-methyl-N-(5-methyl-1,2-oxazol-3-yl)-1-oxo-2,3,4,5-tetrahydro-1H-[1,4]diazepino[1,2-a]indole-8-carboxamide], the IC50 amounted to 12 nM.

`C[C@@H]1NC(=O)c2cc3ccc(C(=O)Nc4nc5ccccc5n4CCCN(C)C)cc3n2[C@@H]1C` [Example 139, (3S,4R)-N-{1-[3-(dimethylamino)propyl]-1H-benzimidazol-2-yl}-3,4-dimethyl-1-oxo-1,2,3,4-tetrahydropyrazino[1,2-a]indole-7-carboxamide]: the IC50 stood at 0.18 nM.

For `O=C(Nc1ccccc1Cl)c1ccc2cc3n(c2c1)CCCNC3=O` [Example 216, N-(2-chlorophenyl)-1-oxo-2,3,4,5-tetrahydro-1H-[1,4]diazepino[1,2-a]indole-8-carboxamide], the IC50 worked out at 6000 nM.

`CCn1c(NC(=O)c2ccc3cc4n(c3c2)[C@@H](C)[C@H](C)NC4=O)nc2ccccc21` (relative stereo) [Example 80, N-(1-ethyl-1H-benzimidazol-2-yl)-trans-3,4-dimethyl-1-oxo-1,2,3,4-tetrahydropyrazino[1,2-a]indole-7-carboxamide]: the IC50 was determined as 5 nM.

As to `Cc1cnc(NC(=O)c2ccc3cc4n(c3c2)CCCNC4=O)s1` [Example 106, N-(5-methyl-1,3-thiazol-2-yl)-1-oxo-2,3,4,5-tetrahydro-1H-[1,4]diazepino[1,2-a]indole-8-carboxamide], the IC50 was determined as 300 nM.

Regarding `O=C(Nc1cc(-c2cccnc2)no1)c1ccc2cc3n(c2c1)CCCNC3=O` [Example 210, 1-oxo-N-[3-(pyridin-3-yl)-1,2-oxazol-5-yl]-2,3,4,5-tetrahydro-1H-[1,4]diazepino[1,2-a]indole-8-carboxamide], the IC50 amounted to 30 nM.

Consider `Cn1cc(NC(=O)c2ccc3cc4n(c3c2)C(C)(C)CNC4=O)nc1C(=O)NC(C)(C)C` [Example 231, N-[2-(tert-butylcarbamoyl)-1-methyl-1H-imidazol-4-yl]-4,4-dimethyl-1-oxo-1,2,3,4-tetrahydropyrazino[1,2-a]indole-7-carboxamide], for which the IC50 was 6 nM.

With `CC1CCNC(=O)c2cc3ccc(C(=O)Nc4cnn(C)c4)cc3n21` (stereo not shown) [Example 164, 5-methyl-N-(1-methyl-1H-pyrazol-4-yl)-1-oxo-2,3,4,5-tetrahydro-1H-[1,4]diazepino[1,2-a]indole-8-carboxamide], the IC50 came out at 10 nM.

For `CC1CNC(=O)c2cc3ccc(C(=O)Nc4cn[nH]c4)cc3n2C1` (stereo not shown) [Example 17, 4-methyl-1-oxo-N-(1H-pyrazol-4-yl)-2,3,4,5-tetrahydro-1H-[1,4]diazepino[1,2-a]indole-8-carboxamide], the IC50 is 145 nM.

Regarding `O=C(Nc1ccccn1)c1ccc2cc3n(c2c1)CCCNC3=O` [Example 154, 1-oxo-N-(pyridin-2-yl)-2,3,4,5-tetrahydro-1H-[1,4]diazepino[1,2-a]indole-8-carboxamide], the IC50 came to 220 nM.

Take `CC1(C)CNC(=O)c2cc3ccc(C(=O)Nc4nc5ccccc5[nH]4)cc3n21` [Example 56, N-(1H-benzimidazol-2-yl)-4,4-dimethyl-1-oxo-1,2,3,4-tetrahydropyrazino[1,2-a]indole-7-carboxamide]: the IC50 came to 0.89 nM.

Regarding `CC1(C)CNC(=O)c2cc3ccc(C(=O)Nc4cc(-c5ccccc5)no4)cc3n21` [Example 201, 4,4-dimethyl-1-oxo-N-(3-phenyl-1,2-oxazol-5-yl)-1,2,3,4-tetrahydropyrazino[1,2-a]indole-7-carboxamide], the IC50 was 15 nM.

For the compound `O=C(Nc1nnc(Cc2ccccc2)s1)c1ccc2cc3n(c2c1)CCCNC3=O` [Example 117, N-(5-benzyl-1,3,4-thiadiazol-2-yl)-1-oxo-2,3,4,5-tetrahydro-1H-[1,4]diazepino[1,2-a]indole-8-carboxamide], the IC50 was determined as 98 nM.

As to `COc1cccc(NC(=O)c2ccc3cc4n(c3c2)CCCNC4=O)c1` [Example 148, N-(3-methoxyphenyl)-1-oxo-2,3,4,5-tetrahydro-1H-[1,4]diazepino[1,2-a]indole-8-carboxamide], the IC50 was 190 nM.

Consider `CC(C)n1ccc(NC(=O)c2ccc3cc4n(c3c2)CCCNC4=O)n1` [Example 13, 1-oxo-N-[1-(propan-2-yl)-1H-pyrazol-3-yl]-2,3,4,5-tetrahydro-1H-[1,4]diazepino[1,2-a]indole-8-carboxamide], for which the IC50 amounted to 1600 nM.

For the compound `CC(C)n1c(NC(=O)c2ccc3cc4n(c3c2)C(C)(C)CNC4=O)nc2ccccc21` [Example 73, 4,4-dimethyl-1-oxo-N-[1-(propan-2-yl)-1H-benzimidazol-2-yl]-1,2,3,4-tetrahydropyrazino[1,2-a]indole-7-carboxamide], the IC50 worked out at 2 nM.

For `O=C(Nc1cnn(CCc2ccccc2)c1)c1ccc2cc3n(c2c1)CCCNC3=O` [Example 113, 1-oxo-N-[1-(2-phenylethyl)-1H-pyrazol-4-yl]-2,3,4,5-tetrahydro-1H-[1,4]diazepino[1,2-a]indole-8-carboxamide], the IC50 is 17 nM.

Regarding `O=C(Nc1ccc2scnc2c1)c1ccc2cc3n(c2c1)CCCNC3=O` [Example 203, N-(1,3-benzothiazol-5-yl)-1-oxo-2,3,4,5-tetrahydro-1H-[1,4]diazepino[1,2-a]indole-8-carboxamide], the IC50 worked out at 180 nM.

Regarding `Cc1cc(NC(=O)c2ccc3cc4n(c3c2)CC2(CC2)CNC4=O)no1` [Example 127, N-(5-methyl-1,2-oxazol-3-yl)-1′-oxo-2′,3′-dihydro-1′H-spiro[cyclopropane-1,4′-[1,4]diazepino[1,2-a]indole]-8′-carboxamide], the 50% inhibitory concentration (IC50) was 145 nM.

Regarding `O=C(Nc1ccc(Cl)cc1)c1ccc2cc3n(c2c1)CCCNC3=O` [Example 4, N-(4-chlorophenyl)-1-oxo-2,3,4,5-tetrahydro-1H-[1,4]diazepino[1,2-a]indole-8-carboxamide], the IC50 turned out to be 190 nM.

For the origin of these results see US9150577B2, “Heterocyclic compounds containing an indole core” (Boehringer Ingelheim International GmbH, priority 2009, dated 2015).
